# Experimental data: patent US8575158B2, “1-phenyl-substituted heterocyclyl derivatives and their use as prostaglandin D2 receptor modulators” (Actelion Pharmaceuticals Ltd., priority 2010, dated 2013)
# Biological target: T1, hCRTH2 receptor (Homo sapiens, UniProt Q9Y5Y4)
# T1 construct: expressed in transfected cells; host or cells: HEK293
# T1 sequence (Q9Y5Y4 1-395): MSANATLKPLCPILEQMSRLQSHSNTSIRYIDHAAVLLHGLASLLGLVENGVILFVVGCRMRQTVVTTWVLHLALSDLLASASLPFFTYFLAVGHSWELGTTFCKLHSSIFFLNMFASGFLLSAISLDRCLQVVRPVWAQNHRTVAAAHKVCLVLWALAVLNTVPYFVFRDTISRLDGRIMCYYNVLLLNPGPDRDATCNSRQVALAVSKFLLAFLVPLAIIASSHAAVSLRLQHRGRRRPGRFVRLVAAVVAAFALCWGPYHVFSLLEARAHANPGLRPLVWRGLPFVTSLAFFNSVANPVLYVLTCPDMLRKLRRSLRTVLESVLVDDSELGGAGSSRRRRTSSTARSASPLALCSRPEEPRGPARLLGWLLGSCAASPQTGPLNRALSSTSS
# Experiment: Radioligand displacement assay (3H-PGD2) on hCRTH2 receptor membranes
# Assay type: binding
# Settings: antagonistic activity; 3H-PGD2 displacement on HEK293-hCRTH2 membrane fragments
row,IC50 [nM],Structure (SMILES)
1,10.4,"O=C(O)COc1ccc(Cl)cc1C1c2ccccc2CCN1C(=O)OCCc1ccccc1Cl (racemic) [Example 176, (±)-1-(2-Carboxymethoxy-5-chloro-phenyl)-3,4-dihydro-1H-isoquinoline-2-carboxylic acid 2-(2-chloro-phenyl)-ethyl ester]"
2,27.5,"O=C(O)COc1ccc(F)cc1C1c2ccccc2CCN1C(=O)OCCc1ccccc1Cl (racemic) [Example 177, (±)-1-(2-Carboxymethoxy-5-fluoro-phenyl)-3,4-dihydro-1H-isoquinoline-2-carboxylic acid 2-(2-chloro-phenyl)-ethyl ester]"
3,151,"CC1(C)CN(C(=O)OCc2ccccc2)C(c2cc(Cl)ccc2OCC(=O)O)c2ccccc21 (racemic) [Example 180, (±)-1-(2-Carboxymethoxy-5-chloro-phenyl)-4,4-dimethyl-3,4-dihydro-1H-isoquinoline-2-carboxylic acid benzyl ester]"
4,572,CCS(=O)(=O)c1ccc2c(c1)C(c1cc(F)ccc1OCC(=O)O)N(C(=O)OCc1ccccc1)CC2 (racemic) [Example 181]
5,308,CS(=O)(=O)c1ccc(OCC(=O)O)c(C2c3ccccc3CCN2C(=O)OCc2ccccc2)c1 (racemic) [Example 182]
6,64,O=C(O)COc1ccc(S(=O)(=O)c2ccccc2)cc1C1c2ccccc2CCN1C(=O)OCc1ccccc1 (racemic) [Example 183]
7,346,CCS(=O)(=O)c1ccc(OCC(=O)O)c(C2c3ccccc3CCN2C(=O)OCc2ccccc2)c1 (racemic) [Example 184]
8,78.7,CS(=O)(=O)c1cccc2c1CCN(C(=O)OCc1ccccc1)C2c1cc(F)ccc1OCC(=O)O (racemic) [Example 185]
9,311,CCS(=O)(=O)c1cccc2c1CCN(C(=O)OCc1ccccc1)C2c1cc(F)ccc1OCC(=O)O (racemic) [Example 186]
10,241,O=C(O)COc1ccc(F)cc1C1c2cccc(S(=O)(=O)c3ccccc3)c2CCN1C(=O)OCc1ccccc1 (racemic) [Example 187]
11,89.4,"O=C(O)COc1ccc(-c2cncnc2)cc1C1c2ccccc2CCN1C(=O)OCc1ccccc1 (racemic) [Example 188, (±)-1-(2-Carboxymethoxy-5-pyrimidin-5-yl-phenyl)-3,4-dihydro-1H-isoquinoline-2-carboxylic acid benzyl ester]"
12,23.3,"O=C(O)COc1ccc(-c2ccc(F)cc2)cc1C1c2ccccc2CCN1C(=O)OCc1ccccc1 (racemic) [Example 189, (±)-1-(4-Carboxymethoxy-4′-fluoro-biphenyl-3-yl)-3,4-dihydro-1H-isoquinoline-2-carboxylic acid benzyl ester]"
13,54,O=C(O)COc1ccc(F)cc1C1c2ccccc2CCN1C(=O)NCc1ccccc1 (racemic) [Example 199]
14,31,O=C(O)COc1ccc(F)cc1C1c2ccccc2CCN1C(=O)NCCc1ccccc1 (racemic) [Example 200]
15,928,O=C(O)COc1ccc(F)cc1C1c2ccccc2CCN1C(=O)CNS(=O)(=O)c1ccccc1 (racemic) [Example 205]
16,983,O=C(O)COc1ccc(F)cc1C1c2ccccc2CCN1C(=O)CNS(=O)(=O)c1ccccc1F (racemic) [Example 208]
17,423,CN(CC(=O)N1CCc2ccccc2C1c1cc(F)ccc1OCC(=O)O)S(=O)(=O)c1ccccc1 (racemic) [Example 210]
18,344,"NC(=O)c1ccc(OCC(=O)O)c(C2c3ccccc3CCN2C(=O)OCc2ccccc2)c1 (racemic) [Example 213, (±)-1-(5-Carbamoyl-2-carboxymethoxy-phenyl)-3,4-dihydro-1H-isoquinoline-2-carboxylic acid benzyl ester]"
19,147,"O=C(O)COc1ccc(-c2noc(=S)[nH]2)cc1C1c2ccccc2CCN1C(=O)OCc1ccccc1 (racemic) [Example 214, (±)-1-[2-Carboxymethoxy-5-(5-thioxo-4,5-dihydro-[1,2,4]oxadiazol-3-yl)-phenyl]-3,4-dihydro-1H-isoquinoline-2-carboxylic acid benzyl ester]"
20,27,"O=C(O)COc1cc(F)ccc1C1c2ccccc2CCN1C(=O)OCc1ccccc1 (racemic) [Example 215, (±)-1-(2-Carboxymethoxy-4-fluoro-phenyl)-3,4-dihydro-1H-isoquinoline-2-carboxylic acid benzyl ester]"
21,182,"O=C(O)COc1cccc(F)c1C1c2ccccc2CCN1C(=O)OCc1ccccc1 (racemic) [Example 216, (±)-1-(2-Carboxymethoxy-6-fluoro-phenyl)-3,4-dihydro-1H-isoquinoline-2-carboxylic acid benzyl ester]"
22,110,"O=C(O)CCCOc1ccc(F)cc1C1c2ccccc2CCN1C(=O)OCc1ccccc1 (racemic) [Example 217, (±)-1-[2-(3-Carboxy-propoxy)-5-fluoro-phenyl]-3,4-dihydro-1H-isoquinoline-2-carboxylic acid benzyl ester]"
23,4.72,"N#Cc1ccc(OCC(=O)O)c(C2c3ccccc3CCN2C(=O)OCc2ccccc2)c1 (racemic) [Example 219, (±)-1-(2-Carboxymethoxy-5-cyano-phenyl)-3,4-dihydro-1H-isoquinoline-2-carboxylic acid benzyl ester]"

# The remaining lines, values behind:
row,Structure (SMILES),IC50 [nM]
1,COc1ccc(OC(=O)N2CCc3ccccc3C2c2cc(F)ccc2OCC(=O)O)cc1 (racemic) [Example 173],102
2,O=C(O)COc1ccc(Cl)cc1C1c2cccc(F)c2CCN1C(=O)OCc1ccccc1Cl (racemic) [Example 175],8.75
3,"O=C(O)COc1ccc(F)cc1C1c2ccccc2CCN1C(=O)Oc1cccc(Cl)c1 (racemic) [Example 178, (±)-1-(2-Carboxymethoxy-5-fluoro-phenyl)-3,4-dihydro-1H-isoquinoline-2-carboxylic acid 3-chloro-phenyl ester]",687
4,"O=C(O)COc1ccc(Cl)cc1C1c2cccc(F)c2CCN1C(=O)OCCc1ccccc1Cl (racemic) [Example 179, (±)-1-(2-Carboxymethoxy-5-chloro-phenyl)-5-fluoro-3,4-dihydro-1H-isoquinoline-2-carboxylic acid 2-(2-chloro-phenyl)-ethyl ester]",39.5
5,O=C(O)COc1ccc(F)cc1C1c2ccccc2CCN1C(=O)COCc1cccc(Cl)c1 (racemic) [Example 190],16.9
6,O=C(O)COc1ccc(F)cc1C1c2ccccc2CCN1C(=O)COCc1ccc(Cl)cc1 (racemic) [Example 191],33.3
7,Cc1ccccc1COCC(=O)N1CCc2ccccc2C1c1cc(F)ccc1OCC(=O)O (racemic) [Example 192],11.1
8,Cc1cccc(COCC(=O)N2CCc3ccccc3C2c2cc(F)ccc2OCC(=O)O)c1 (racemic) [Example 193],27.7
9,Cc1ccc(COCC(=O)N2CCc3ccccc3C2c2cc(F)ccc2OCC(=O)O)cc1 (racemic) [Example 194],90.2
10,COc1cccc(COCC(=O)N2CCc3ccccc3C2c2cc(F)ccc2OCC(=O)O)c1 (racemic) [Example 195],36.3
11,COc1ccc(COCC(=O)N2CCc3ccccc3C2c2cc(F)ccc2OCC(=O)O)cc1 (racemic) [Example 196],146
12,"Cn1ccc(COCC(=O)N2CCc3ccccc3C2c2cc(F)ccc2OCC(=O)O)n1 (racemic) [Example 197, (±)-(4-Fluoro-2-{2-[2-(1-methyl-1H-pyrazol-3-ylmethoxy)-acetyl]-1,2,3,4-tetrahydro-isoquinolin-1-yl}-phenoxy)-acetic acid]",323
13,"COc1ccccc1COCC(=O)N1CCc2ccccc2C1c1cc(F)ccc1OCC(=O)O (racemic) [Example 198, (±)-(4-Fluoro-2-{2-[2-(2-methoxy-benzyloxy)-acetyl]-1,2,3,4-tetrahydro-isoquinolin-1-yl}-phenoxy)-acetic acid]",19
14,COc1ccccc1CNC(=O)N1CCc2ccccc2C1c1cc(F)ccc1OCC(=O)O (racemic) [Example 201],21
15,COc1ccccc1CNC(=O)N1CCc2ccccc2C1c1cc(Cl)ccc1OCC(=O)O (racemic) [Example 202],7.29
16,O=C(O)COc1ccc(F)cc1C1c2ccccc2CCN1C(=O)NCc1ccccc1Cl (racemic) [Example 203],27.9
17,"O=C(O)COc1ccc(F)cc1C1c2ccccc2CCN1C(=O)NCCc1ccccc1Cl (racemic) [Example 204, (±)-(2-{2-[2-(2-Chloro-phenyl)-ethylcarbamoyl]-1,2,3,4-tetrahydro-isoquinolin-1-yl}-4-fluoro-phenoxy)-acetic acid]",83
18,Cc1noc(C)c1S(=O)(=O)NCC(=O)N1CCc2ccccc2C1c1cc(F)ccc1OCC(=O)O (racemic) [Example 206],819
19,O=C(O)COc1ccc(F)cc1C1c2ccccc2CCN1C(=O)CNS(=O)(=O)c1cccc(F)c1 (racemic) [Example 207],347
20,O=C(O)COc1ccc(F)cc1C1c2ccccc2CCN1C(=O)CNS(=O)(=O)c1ccc(F)c(F)c1 (racemic) [Example 209],644
21,CN(CC(=O)N1CCc2ccccc2C1c1cc(F)ccc1OCC(=O)O)S(=O)(=O)c1cccc(F)c1 (racemic) [Example 211],261
22,CN(CC(=O)N1CCc2ccccc2C1c1cc(F)ccc1OCC(=O)O)S(=O)(=O)c1ccc(F)c(F)c1 (racemic) [Example 212],920
23,"N#Cc1ccc(OCC(=O)O)c(C2c3ccccc3CCN2C(=O)[C@@H]2C[C@H]2c2ccccc2)c1 (mixture of isomers) [Example 218, (±)-{4-Cyano-2-[2-(trans-2-phenyl-cyclopropanecarbonyl)-1,2,3,4-tetrahydro-isoquinolin-1-yl]-phenoxy}-acetic acid]",13.4
